Test results reported in publication PMC3760249 (mBio, 2013).

Assays:
AppA [1] = target: T1, AppA (Cereibacter sphaeroides, UniProt Q53119); experiment: co-purification, flavin absorption spectrum; format: binding; settings: BLUF domain cofactor as purified
T1 sequence (Q53119 1-450): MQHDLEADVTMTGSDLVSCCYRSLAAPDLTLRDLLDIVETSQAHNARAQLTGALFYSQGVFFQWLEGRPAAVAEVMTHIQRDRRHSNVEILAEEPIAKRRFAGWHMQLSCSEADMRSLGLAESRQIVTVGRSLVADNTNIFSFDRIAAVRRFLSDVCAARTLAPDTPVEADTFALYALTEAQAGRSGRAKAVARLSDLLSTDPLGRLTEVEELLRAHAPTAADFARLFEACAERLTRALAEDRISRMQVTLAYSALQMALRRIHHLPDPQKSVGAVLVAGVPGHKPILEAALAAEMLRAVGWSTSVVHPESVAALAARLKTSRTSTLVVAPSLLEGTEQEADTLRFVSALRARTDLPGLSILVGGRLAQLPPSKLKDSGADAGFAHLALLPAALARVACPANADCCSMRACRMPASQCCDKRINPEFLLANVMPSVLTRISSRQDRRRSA

AppA [2] = target: T1, AppA; experiment: biochemical

Structure (SMILES)	co-purification, flavin absorption spectrum (AppA [1])	Kd (AppA [2]) [nM]
Cc1cc2nc3c(=O)[nH]c(=O)nc-3n(C[C@H](O)[C@H](O)[C@H](O)COP(=O)(O)OP(=O)(O)OC[C@H]3O[C@@H](n4cnc5c(N)ncnc54)[C@H](O)[C@@H]3O)c2cc1C [flavin adenine dinucleotide]	it does contain flavin adenine dinucleotide (FAD) as the BLUF domain cofactor	
C=CC1=C(C)C2=Cc3c(C=C)c(C)c4[n]3[Fe+][n]3c(c(C)c(CCC(=O)O)c3=CC3=NC(=C4)C(C)=C3CCC(=O)O)=CC1=N2 [heme]		1250 ± 440
